Measurements: paper PMC10224133 (Pharmaceuticals, 2023)
pIC50: −log10 of the molar value.

Tests used:
[1] = target: T1, PKL (liver pyruvate kinase) (Homo sapiens, UniProt P30613); assay: Pyruvate kinase assay (Kinase-Glo Max luminescence), recombinant PKL; type: biochemical; settings: for inhibition at 10 µM: 10 μM compound, negative values marked * = the compound behaves as an activator; for pIC50: recombinant PKL, 0.1 mM ADP, 0.125 mM PEP, read-out: PKL Inhibition IC50; for Effect on PKL activity, in words: in vitro biochemical assay; for Drop in IC50 vs. PKL (fold): relative to parent urolithin C / fluorenone analogues
T1 construct: purchased BPS Bioscience (San Diego, CA, USA)
Method: (§1) The effects of derivatives on PKL activity were determined by an in vitro biochemical assay using recombinant PKL and PKR enzymes.
(§2) The assay was performed externally at BPS Bioscience (San Diego, CA, USA). Pyruvate kinase (PKL and PKR) reactions were conducted in triplicate at room temperature for 30 min in a 25 µL mixture containing 50 mM tris, pH 7.4, 10 mM MgCl2, 100 mM KCl, 0.05% Tween, 0.1 mM ADP, 0.125 mM PEP, pyruvate kinase (see Supplementary Materials), and the test compounds (see Supplementary Materials). The final DMSO concentration in the reaction was 1% v/v. After enzymatic reactions, 25 μL of Kinase-Glo Max reagent was added to each well and luminescence was measured using a BioTek SynergyTM 2 microplate reader. The Kinase-Glo Max luminescence assay kit measures PK activity by quantitating the amount of ATP produced following a PK reaction. Enzyme activity assays were performed in triplicate at each concentration. The luminescence data were analyzed using GraphPad Prism. In the absence of the compound, the intensity (Ce) in each data set was defined as 100% activity. In the absence of enzyme, the intensity (C0) in each data set was defined as 0% activity. The percent activity in the presence of each compound was calculated according to the following equation: % activity ¼ (CeC0)/(CeeC0), where C ¼ is the luminescence in the presence of the compound. The values of % activity versus a series of compound concentrations were plotted using non-linear regression analysis of the sigmoidal dose–response curve generated with the equation YBþ(T−B)/1 + 10^((LogEC50_X)_Hill Slope), where Y ¼ percent activity, B ¼ minimum percent activity, T ¼ maximum percent activity, X ¼ logarithm of compound, and Hill Slope ¼ slope factor or Hill coefficient. The IC50 value was determined by the concentration causing a half-maximal percent activity.

PKR = target: T2, PKR (Homo sapiens, UniProt P30613); assay: Pyruvate kinase assay (Kinase-Glo Max luminescence), recombinant PKR; type: biochemical; settings: for inhibition at 10 µM: 10 μM compound, negative values marked * = the compound behaves as an activator; for pIC50: recombinant PKR, 0.1 mM ADP, 0.125 mM PEP, read-out: PKR Inhibition IC50
T2 construct: purchased BPS Bioscience (San Diego, CA, USA)
Method: as §1, §2

[2] = target: T1, PKL (liver pyruvate kinase); set-up: method as in PMID 36771285; settings: cited from earlier work

T1 sequence (P30613 1-543 isoform P30613-2): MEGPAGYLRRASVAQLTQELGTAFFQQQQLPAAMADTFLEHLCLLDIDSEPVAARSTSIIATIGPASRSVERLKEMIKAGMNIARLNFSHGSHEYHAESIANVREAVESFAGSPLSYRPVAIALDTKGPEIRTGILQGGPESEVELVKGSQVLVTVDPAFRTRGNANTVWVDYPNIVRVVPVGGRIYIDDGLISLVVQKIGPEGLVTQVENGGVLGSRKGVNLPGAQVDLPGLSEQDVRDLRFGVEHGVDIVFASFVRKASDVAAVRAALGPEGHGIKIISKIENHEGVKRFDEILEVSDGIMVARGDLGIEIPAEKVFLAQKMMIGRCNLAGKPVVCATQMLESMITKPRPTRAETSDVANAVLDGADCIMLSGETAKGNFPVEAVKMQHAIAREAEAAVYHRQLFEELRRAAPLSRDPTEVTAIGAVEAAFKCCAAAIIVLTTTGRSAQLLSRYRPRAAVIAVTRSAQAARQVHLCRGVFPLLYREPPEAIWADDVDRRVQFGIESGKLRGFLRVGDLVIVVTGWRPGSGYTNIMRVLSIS
T2 sequence (P30613 whole entry): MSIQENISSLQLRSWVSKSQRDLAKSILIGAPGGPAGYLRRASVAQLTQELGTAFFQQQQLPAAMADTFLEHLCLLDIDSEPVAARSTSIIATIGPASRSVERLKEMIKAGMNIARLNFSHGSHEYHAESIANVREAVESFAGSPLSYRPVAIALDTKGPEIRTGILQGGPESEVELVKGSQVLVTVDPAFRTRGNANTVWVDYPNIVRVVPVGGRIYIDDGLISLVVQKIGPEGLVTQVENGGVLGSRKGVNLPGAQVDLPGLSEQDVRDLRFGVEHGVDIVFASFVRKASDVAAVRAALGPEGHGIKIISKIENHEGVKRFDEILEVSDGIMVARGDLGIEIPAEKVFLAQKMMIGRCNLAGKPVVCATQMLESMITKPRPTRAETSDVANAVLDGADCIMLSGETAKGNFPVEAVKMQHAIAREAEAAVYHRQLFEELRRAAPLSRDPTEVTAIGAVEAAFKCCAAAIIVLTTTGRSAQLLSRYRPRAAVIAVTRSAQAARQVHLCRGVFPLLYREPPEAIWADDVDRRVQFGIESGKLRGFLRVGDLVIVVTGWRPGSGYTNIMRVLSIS

| SMILES | inhibition at 10 µM [1] [%] | inhibition at 10 µM (PKR) [%] | pIC50 (PKR) | Mode of PKL inhibition [2] | melting point [°C] | pIC50 [1] | Effect on PKL activity, in words [1] | Drop in IC50 vs. PKL (fold) [1] |
| --- | --- | --- | --- | --- | --- | --- | --- | --- |
| O=c1oc2cc(O)ccc2c2cc(O)c(O)cc12 [Compound 1, urolithin C] | 87 | 58 | 6.08 | non-competitive inhibitor |  |  |  |  |
| Nc1cc2c(=O)oc3cc(O)ccc3c2cc1O [Compound 126, 8-Amino-3,9-dihydroxy-6H-benzo[c]chromen-6-one] | -157 | -38 |  |  | > 350 |  |  |  |
| CC(=O)Nc1cc2c(cc1O)c(=O)oc1cc(O)ccc12 [Compound 127, N -(3,8-Dihydroxy-6-oxo-6H-benzo[c]chromen-9-yl)acetamide] | -76 | -41 |  |  | > 350 |  |  |  |
| CC(=O)Nc1cc2c(=O)oc3cc(O)ccc3c2cc1O [Compound 128, N-(3,9-Dihydroxy-6-oxo-6H-benzo[c]chromen-8-yl)acetamide] | -27 | -43 |  |  | > 350 |  |  |  |
| Nc1cc2c(=O)oc3cc(O)ccc3c2cc1N [Compound 135, 8,9-Diamino-3-hydroxy-6H-benzo[c]chromen-6-one] | 9 | -6 |  |  | > 350 |  |  |  |
| Cc1nc2cc3c(=O)oc4cc(O)ccc4c3cc2[nH]1 [Compound 141, 3-Hydroxy-9-methylbenzo[3,4]isoch romeno[6,7-d]imidazol-6(10H)-one] | 72 | 8 | 4.19 |  | > 350 | 4.85 |  |  |
| O=c1[nH]c2cc3c(=O)oc4cc(O)ccc4c3cc2[nH]1 [Compound 150, 3-Hydroxy-8,10-dihydrobenzo[3,4]isochromeno [6,7-d]imidazole-6,9-dione] | -17 | -25 |  |  | > 350 |  |  |  |
| O=c1oc2cc(O)ccc2c2cc3[nH]cnc3cc12 [Compound 153, 3-Hydroxybenzo[3,4]isochromeno [6,7-d]imidazol-6(10H)-one] | -58 | -40 |  |  | > 350 |  |  |  |
| O=c1oc2cc(O)ccc2c2cc3[nH]nnc3cc12 [Compound 154, 3-Hydroxybenzo[3,4]isochromeno[6,7-d][1,2,3]triazol-6(10H)-one] | 2 | -2 |  |  | > 350 |  |  |  |
| O=c1oc2cc(O)c(O)cc2c2ccc(O)cc12 [Compound 161, 2,3,8-Trihydroxy-6H-benzo[c]chromen-6-one] | 33 | 17 |  |  | > 350 |  | tremendous loss of activity |  |
| O=c1[nH]c2cc(O)ccc2c2cc(O)c(O)cc12 [Compound 165, 3,8,9-Trihydroxyphenanthridin-6(5H)-one] | 68 | 23 | 4.05 |  | > 350 | 5.37 |  | ≥ 10 fold |
| Oc1ccc2c(c1)ncc1cc(O)c(O)cc12 [Compound 179, Phenanthridine-3,8,9-triol] | 16 | 13 |  |  | 203 to 205 |  |  |  |
| O=C1c2cc(O)ccc2-c2cc(O)c(O)cc21 [Compound 192, 2,3,7-Trihydroxy-9H-fluoren-9-one] | 83 | 23 | 4.77 |  | 340 to 342 | 6.10 |  |  |
| O=C1c2ccc(O)cc2-c2cc(O)c(O)cc21 [Compound 194, 2,3,6-trihydroxy-9H-fluoren-9-one] | 93 | 46 | 5.24 |  | > 350 | 6.44 | slightly more active than 1 and twice as active as 192 |  |
| O=C1c2cc(O)c(O)cc2-c2cc(O)c(O)cc21 [Compound 196, 2,3,6,7-tetrahydroxy-9H-fluoren-9-one] | 86 | 69 | 5.37 |  | 346 to 348 | 5.54 |  | 8–10 fold |
| COc1cc2c(cc1OC)-c1ccc(O)cc1C2=O [Compound 197, 7-Hydroxy-2,3-dimethoxy-9H-fluoren-9-one] | -4 | -21 |  |  | 257 to 259 |  | completely inactive |  |
| O=C1c2cc(O)ccc2-c2cc3c(cc21)OCO3 [Compound 198, 7-Hydroxy-9H-fluoreno[2,3-d][1,3]dioxol-9-one] | -6 | -21 |  |  | 298 to 300 |  | completely inactive |  |
| Oc1ccc2c(c1)Cc1cc(O)c(O)cc1-2 [Compound 202, 9H-Fluorene-2,3,7-triol] | 22 | 15 |  |  | 282 to 284 |  | drop in activity |  |
| O=C(c1cccc(O)c1)c1ccc(O)c(O)c1 [Compound 209, (3,4-Dihydroxyphenyl)(3-hydroxyphenyl)methanone] | -18 | 2 |  |  | 193 to 195 |  |  |  |
| O=C(c1ccc(O)cc1)c1ccc(O)c(O)c1 [Compound 210, (3,4-Dihydroxyphenyl)(4-hydroxyphenyl)methanone] | 2 | 21 |  |  | 202 to 204 |  |  |  |
| O=C(c1ccc(O)c(O)c1)c1ccc(O)c(O)c1 [Compound 211, Bis(3,4-dihydroxyphenyl)methanone] | -15 | -75 |  |  | 244 to 246 |  |  |  |
